Reference: US20090012045A1, “Methods of Treating Cell Proliferative Disorders” (RIGEL PHARMACEUTICALS, INC., priority 2007, published 2009)

How the values were obtained:
HCT-15 = HCT-15 (Colon Cancer)
RPM1-8226 = RPM1-8226 (Leukemia)
SF-295 = SF-295 (CNS Cancer)
SF-268 = SF-268 (CNS Cancer)
SN12C = SN12C (Renal Cancer)
LOX I MVI = LOX I MVI (Melanoma)
KM12 = KM12 (Colon Cancer)
U251 = U251 (CNS Cancer)
OVCAR-3 = OVCAR-3 (Ovarian Cancer)
NCI-H23 = NCI-H23 (Non-Small Cell Lung Cancer)
HT29 = HT29 (Colon Cancer)
HOP-62 = HOP-62 (Non-Small Cell Lung Cancer)
PC-3 = experiment: in vitro antiproliferation assay, Prostate Cancer; details: PC-3 (Prostate Cancer)
ACHN = ACHN (Renal Cancer)
K-562 = K-562 (Leukemia)
TK-10 = TK-10 (Renal Cancer)
A549/ATCC = A549/ATCC (Non-Small Cell Lung Cancer)
SNB-19 = SNB-19 (CNS Cancer)
EKVX = EKVX (Non-Small Cell Lung Cancer)
SR = SR (Leukemia)
IGROV1 = IGROV1 (Ovarian Cancer)
HCC-2998 = HCC-2998 (Colon Cancer)
NCI-H226 = NCI-H226 (Non-Small Cell Lung Cancer)
HOP-92 = HOP-92 (Non-Small Cell Lung Cancer)
OVCAR-5 = OVCAR-5 (Ovarian Cancer)
SK-OV-3 = SK-OV-3 (Ovarian Cancer)
SNB-75 = SNB-75 (CNS Cancer)
HCT-116 = HCT-116 (Colon Cancer)
786-0 = 786-0 (Renal Cancer)
UO-31 = UO-31 (Renal Cancer)
OVCAR-8 = OVCAR-8 (Ovarian Cancer)

SMILES: COc1cc(Nc2ncc(F)c(Nc3ccc4c(n3)NC(=O)C(C)(C)O4)n2)cc(OC)c1OC.O=S(=O)(O)c1ccccc1 [Compound 1 (besylate salt), N4-(2,2-Dimethyl-3-oxo-4H-5-pyrid[1,4]oxazin-6-yl)-5-fluoro-N2-(3,4,5-trimethoxyphenyl)-2,4-pyrimidinediamine Benzenesulfonic Acid Salt]
- TGI (HCT-15): >1.00E−4
- CC50 (HCT-15; read-out: LC50): > 100 µM
- GI50 (RPM1-8226): > 100 µM
- TGI (RPM1-8226): >1.00E−4
- CC50 (RPM1-8226; read-out: LC50): > 100 µM
- TGI (SF-295): >1.00E−4
- CC50 (SF-295; read-out: LC50): > 100 µM
- GI50 (SF-268): 1.7 µM
- TGI (SF-268): >1.00E−4
- CC50 (SF-268; read-out: LC50): > 100 µM
- GI50 (SN12C): 0.698 µM
- TGI (SN12C): >1.00E−4
- CC50 (SN12C; read-out: LC50): > 100 µM
- GI50 (LOX I MVI): 1.13 µM
- TGI (LOX I MVI): 1.13E−6
- CC50 (LOX I MVI; read-out: LC50): > 100 µM
- GI50 (KM12): 0.355 µM
- TGI (KM12): >1.00E−4
- CC50 (KM12; read-out: LC50): > 100 µM
- TGI (U251): >1.00E−4
- CC50 (U251; read-out: LC50): > 100 µM
- GI50 (OVCAR-3): > 100 µM
- TGI (OVCAR-3): >1.00E−4
- CC50 (OVCAR-3; read-out: LC50): > 100 µM
- TGI (NCI-H23): >1.00E−4
- CC50 (NCI-H23; read-out: LC50): > 100 µM
- GI50 (HT29): 2.19 µM
- TGI (HT29): >1.00E−4
- CC50 (HT29; read-out: LC50): > 100 µM
- GI50 (HOP-62): 0.537 µM
- TGI (HOP-62): >1.00E−4
- CC50 (HOP-62; read-out: LC50): > 100 µM
- GI50 (PC-3): 3.07 µM
- TGI (PC-3): >1.00E−4
- CC50 (PC-3; read-out: LC50): > 100 µM
- GI50 (ACHN): 1.24 µM
- TGI (ACHN): >1.00E−4
- CC50 (ACHN; read-out: LC50): > 100 µM
- GI50 (K-562): > 100 µM
- TGI (K-562): >1.00E−4
- CC50 (K-562; read-out: LC50): > 100 µM
- TGI (TK-10): >1.00E−4
- CC50 (TK-10; read-out: LC50): > 100 µM
- TGI (A549/ATCC): >1.00E−4
- CC50 (A549/ATCC; read-out: LC50): > 100 µM
- GI50 (SNB-19): > 100 µM
- TGI (SNB-19): >1.00E−4
- CC50 (SNB-19; read-out: LC50): > 100 µM
- GI50 (EKVX): 1.66 µM
- TGI (EKVX): >1.00E−4
- CC50 (EKVX; read-out: LC50): > 100 µM
- GI50 (SR): 3.56 µM
- TGI (SR): >1.00E−4
- CC50 (SR; read-out: LC50): > 100 µM
- GI50 (IGROV1): 0.796 µM
- TGI (IGROV1): >1.00E−4
- CC50 (IGROV1; read-out: LC50): > 100 µM
- GI50 (HCC-2998): > 100 µM
- TGI (HCC-2998): >1.00E−4
- CC50 (HCC-2998; read-out: LC50): > 100 µM
- GI50 (NCI-H226): 0.497 µM
- CC50 (NCI-H226; read-out: LC50): > 100 µM
- GI50 (HOP-92): 0.41 µM
- CC50 (HOP-92; read-out: LC50): > 100 µM
- GI50 (OVCAR-5): > 100 µM
- TGI (OVCAR-5): >1.00E−4
- CC50 (OVCAR-5; read-out: LC50): > 100 µM
- GI50 (SK-OV-3): 0.429 µM
- TGI (SK-OV-3): >1.00E−4
- CC50 (SK-OV-3; read-out: LC50): > 100 µM
- GI50 (SNB-75): 0.871 µM
- TGI (SNB-75): >1.00E−4
- CC50 (SNB-75; read-out: LC50): > 100 µM
- TGI (HCT-116): >1.00E−4
- CC50 (HCT-116; read-out: LC50): > 100 µM
- GI50 (786-0): 0.873 µM
- TGI (786-0): >1.00E−4
- CC50 (786-0; read-out: LC50): > 100 µM
- GI50 (UO-31): 0.596 µM
- TGI (UO-31): >1.00E−4
- CC50 (UO-31; read-out: LC50): > 100 µM
- GI50 (OVCAR-8): > 100 µM
- TGI (OVCAR-8): >1.00E−4
- CC50 (OVCAR-8; read-out: LC50): > 100 µM
